Assay results: publication PMC7490372, “Structural bases of IMiD selectivity that emerges by 5-hydroxythalidomide” (Nature Communications, 2020)

Target: T1, cereblon (CRBN) (Homo sapiens, UniProt Q96SW2)
T1 construct: biotinylated CRBN (wheat cell-free); with SALL4
Assay: AlphaScreen-based ternary complex formation, dose-dependent, in cell-free translation mixtures

T1 sequence (Q96SW2 whole entry): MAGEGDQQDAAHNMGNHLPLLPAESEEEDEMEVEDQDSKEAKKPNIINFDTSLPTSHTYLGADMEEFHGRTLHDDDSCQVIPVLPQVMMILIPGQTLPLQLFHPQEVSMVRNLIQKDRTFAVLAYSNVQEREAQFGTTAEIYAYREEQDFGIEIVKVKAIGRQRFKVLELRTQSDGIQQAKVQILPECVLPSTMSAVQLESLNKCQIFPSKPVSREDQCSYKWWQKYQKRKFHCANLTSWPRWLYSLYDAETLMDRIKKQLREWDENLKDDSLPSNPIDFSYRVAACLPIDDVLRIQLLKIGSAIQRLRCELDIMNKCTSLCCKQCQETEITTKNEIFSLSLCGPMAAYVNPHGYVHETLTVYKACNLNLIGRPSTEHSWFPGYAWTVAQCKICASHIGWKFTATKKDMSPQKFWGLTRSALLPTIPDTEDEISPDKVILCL
T1 sequence (Q9UJQ4 whole entry partner): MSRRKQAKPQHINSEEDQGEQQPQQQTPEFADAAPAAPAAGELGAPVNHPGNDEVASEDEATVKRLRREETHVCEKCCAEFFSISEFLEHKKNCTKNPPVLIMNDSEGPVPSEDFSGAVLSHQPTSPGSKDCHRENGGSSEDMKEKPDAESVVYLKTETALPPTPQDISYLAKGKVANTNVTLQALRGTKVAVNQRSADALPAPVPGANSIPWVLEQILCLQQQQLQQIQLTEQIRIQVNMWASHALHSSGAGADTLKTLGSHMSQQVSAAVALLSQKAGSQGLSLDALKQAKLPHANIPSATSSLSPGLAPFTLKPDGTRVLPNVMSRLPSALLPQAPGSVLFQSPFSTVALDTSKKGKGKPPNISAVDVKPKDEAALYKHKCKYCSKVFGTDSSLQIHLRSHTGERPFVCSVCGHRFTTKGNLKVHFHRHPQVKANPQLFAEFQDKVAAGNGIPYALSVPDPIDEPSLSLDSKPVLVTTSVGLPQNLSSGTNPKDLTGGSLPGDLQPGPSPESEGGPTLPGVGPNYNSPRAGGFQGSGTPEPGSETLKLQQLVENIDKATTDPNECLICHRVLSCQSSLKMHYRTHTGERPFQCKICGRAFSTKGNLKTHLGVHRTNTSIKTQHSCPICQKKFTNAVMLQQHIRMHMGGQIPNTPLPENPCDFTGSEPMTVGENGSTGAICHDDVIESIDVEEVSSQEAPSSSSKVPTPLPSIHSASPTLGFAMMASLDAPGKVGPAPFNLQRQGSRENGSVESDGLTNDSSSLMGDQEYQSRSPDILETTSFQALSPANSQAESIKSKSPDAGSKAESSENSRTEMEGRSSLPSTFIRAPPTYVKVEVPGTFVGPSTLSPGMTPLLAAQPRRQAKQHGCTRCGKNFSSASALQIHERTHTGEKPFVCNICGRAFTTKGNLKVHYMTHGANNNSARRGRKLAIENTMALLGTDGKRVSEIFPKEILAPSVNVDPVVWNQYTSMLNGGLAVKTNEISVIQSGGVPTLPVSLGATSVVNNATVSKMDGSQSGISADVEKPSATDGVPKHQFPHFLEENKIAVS

With Nc1c(O)ccc2c1C(=O)N(C1CCC(=O)NC1=O)C2=O (stereo not shown) [5HP, 5-hydroxypomalidomide] the “AlphaScreen-based ternary complex formation, dose-dependent, in cell-free transl” value was “Dose-dependent interaction of CRBN with SALL4 (left) and IKZF1 (right), as observed with the titration of racemate, Pom, and 5HP”.
